{"source": "patent US9120744B2", "about": "“Plasminogen activator inhibitor-1 inhibitors and methods of use thereof to modulate lipid metabolism” (THE REGENTS OF THE UNIVERSITY OF MICHIGAN, priority 2007, dated 2015)", "note": "Counter-ions that a name gives are not always drawn."}
{"target": "recombinant active human PAI-1 (Homo sapiens (Human), UniProt P05121)", "sequence (P05121 24-402)": "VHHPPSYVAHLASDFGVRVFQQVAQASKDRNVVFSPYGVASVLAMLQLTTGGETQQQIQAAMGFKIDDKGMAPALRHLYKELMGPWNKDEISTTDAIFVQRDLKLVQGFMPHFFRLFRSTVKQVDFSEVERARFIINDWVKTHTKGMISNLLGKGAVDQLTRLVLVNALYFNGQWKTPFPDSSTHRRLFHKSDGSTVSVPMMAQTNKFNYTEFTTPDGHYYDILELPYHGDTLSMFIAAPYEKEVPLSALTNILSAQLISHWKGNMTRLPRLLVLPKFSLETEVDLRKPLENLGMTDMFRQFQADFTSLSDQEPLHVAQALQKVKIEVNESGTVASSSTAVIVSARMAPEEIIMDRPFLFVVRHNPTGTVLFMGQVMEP", "test": "β-trypsin screening assay for PAI-1 inhibitors;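 also: fluorogenic readout with PAI-1 and β-trypsin at 10:1 molar ratio, untreated PAI-1 wells set as 100% PAI-1 activity and β-trypsin alone as 0%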", "type": "biochemical", "conditions": "not given"}
{"compound": "CN1[C@@H]2CC[C@H]1C[C@@H](OC(=O)c1c[nH]c3ccccc13)C2.Cl", "note": "[TROPISETRON HCl]", "screening hit: restoration of β-trypsin activity": "demonstrate PAI-1 inhibitor activity"}
{"compound": "Cl.NCCc1ccc(O)c(O)c1", "note": "[DOPAMINE HYDROCHLORIDE]", "screening hit: restoration of β-trypsin activity": "demonstrate PAI-1 inhibitor activity"}
{"target": "recombinant active human PAI-1 (Homo sapiens (Human), UniProt P05121)", "test": "β-trypsin screening assay for PAI-1 inhibitors;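 also: fluorogenic readout with PAI-1 and β-trypsin at 10:1 molar ratio, untreated PAI-1 wells set as 100% PAI-1 activity and β-trypsin alone as 0%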", "type": "biochemical", "conditions": "10 μM compound; hit = more than 3 standard deviations above control"}
{"compound": "CCN(CC)CCCC(C)Nc1c2ccc(Cl)cc2nc2ccc(OC)cc12", "note": "(centres unmarked) [QUINACRINE HYDROCHLORIDE]", "screening hit: restoration of β-trypsin activity": "demonstrate PAI-1 inhibitor activity"}
{"compound": "Oc1cc2c(cc1O)C1c3ccc(O)c(O)c3OCC1(O)C2", "note": "(centres unmarked) [HAEMATOXYLIN]", "screening hit: restoration of β-trypsin activity": "demonstrate PAI-1 inhibitor activity"}
{"compound": "O=C(O[C@H]1Cc2c(O)cc(O)cc2O[C@H]1c1cc(O)c(=O)c2c(O)c(O)cc([C@@H]3Oc4cc(O)cc(O)c4C[C@@H]3O)c2c1)c1cc(O)c(O)c(O)c1", "note": "[THEAFLAVIN MONOGALLATES]", "screening hit: restoration of β-trypsin activity": "demonstrate PAI-1 inhibitor activity"}
{"compound": "CCOc1nc2cccc(C(=O)OC(C)OC(=O)OC3CCCCC3)c2n1Cc1ccc(-c2ccccc2-c2nn[nH]n2)cc1", "note": "(centres unmarked) [CANDESARTAN CILEXTIL]", "screening hit: restoration of β-trypsin activity": "demonstrate PAI-1 inhibitor activity"}
{"compound": "CC(=O)Oc1cccc(C(=O)O)c1OC(C)=O", "note": "[DIPYROCETYL]", "screening hit: restoration of β-trypsin activity": "demonstrate PAI-1 inhibitor activity"}
{"compound": "Cc1onc(-c2ccccc2)c1-c1ccc(S(N)(=O)=O)cc1", "note": "[VALDECOXIB]", "screening hit: restoration of β-trypsin activity": "demonstrate PAI-1 inhibitor activity"}
{"compound": "CN1[C@H]2CCC[C@H]1CC(NC(=O)c1nn(C)c3ccccc13)C2.Cl", "note": "(some centres unmarked) [GRANISETRON HCl]", "screening hit: restoration of β-trypsin activity": "demonstrate PAI-1 inhibitor activity"}
{"compound": "COc1c(Cl)c(C)c2c(c1Cl)OC(=O)c1c(C)c(Cl)c(O)c(Cl)c1O2", "note": "[DIPLOICIN]", "screening hit: restoration of β-trypsin activity": "demonstrate PAI-1 inhibitor activity"}
{"compound": "O=C1c2ccc(O)c(O)c2C(=O)c2c(O)ccc(O)c21", "note": "[QUINALIZARIN, quinalizarin]", "screening hit: restoration of β-trypsin activity": "demonstrate PAI-1 inhibitor activity"}
{"compound": "C=CC1=C(C(=O)O)N2C(=O)[C@@H](NC(=O)C(NC)c3csc(N)n3)[C@H]2SC1", "note": "(some centres unmarked)", "screening hit: restoration of β-trypsin activity": "demonstrate PAI-1 inhibitor activity"}
{"compound": "O=c1c(O)cc([C@H]2Oc3cc(O)cc(O)c3C[C@H]2O)cc2c([C@H]3Oc4cc(O)cc(O)c4C[C@H]3O)cc(O)c(O)c12", "note": "[THEAFLAVIN]", "screening hit: restoration of β-trypsin activity": "demonstrate PAI-1 inhibitor activity"}
{"compound": "CC(C)C[C@H](NC(=O)[C@@H](O)[C@H](N)Cc1ccccc1)C(=O)O", "note": "[BESTATIN]", "screening hit: restoration of β-trypsin activity": "demonstrate PAI-1 inhibitor activity"}
{"compound": "N=C1C=CC(=C(c2ccc(N)cc2)c2ccc(N)cc2)C=C1", "note": "[PARAROSANILINE PAMOATE]", "screening hit: restoration of β-trypsin activity": "demonstrate PAI-1 inhibitor activity"}
{"compound": "Cc1cc(O)c(C=O)c2c1C(=O)Oc1c(C)c(O)c3c(c1O2)C(O)OC3=O", "note": "(centres unmarked) [NORSTICTIC ACID]", "screening hit: restoration of β-trypsin activity": "demonstrate PAI-1 inhibitor activity"}
{"compound": "CS(=O)(=O)O.Oc1ccc(C2CNCCc3c2cc(O)c(O)c3Cl)cc1", "note": "(centres unmarked) [FENOLDOPAM MESYLATE]", "screening hit: restoration of β-trypsin activity": "demonstrate PAI-1 inhibitor activity"}
{"compound": "COc1ccc2c(=O)c(-c3cc4c(cc3OC)OCO4)coc2c1", "note": "[CUNEATIN METHYL ETHER]", "screening hit: restoration of β-trypsin activity": "demonstrate PAI-1 inhibitor activity"}
{"compound": "CC(C(=O)[O-])c1ccc(CC2CCCC2=O)cc1.[Na+]", "note": "(centres unmarked) [LOXOPROFEN SODIUM]", "screening hit: restoration of β-trypsin activity": "demonstrate PAI-1 inhibitor activity"}
{"compound": "NC[C@H](O)c1ccc(O)c(O)c1", "note": "[NOREPINEPHRINE]", "screening hit: restoration of β-trypsin activity": "demonstrate PAI-1 inhibitor activity"}
{"compound": "CC1(C)S[C@@H]2[C@H](NC(=O)[C@H](NC(=O)N3CCNC3=O)c3ccccc3)C(=O)N2[C@H]1C(=O)[O-].[Na+]", "note": "[AZLOCILLIN SODIUM]", "screening hit: restoration of β-trypsin activity": "demonstrate PAI-1 inhibitor activity"}
{"compound": "COc1ccccc1OCCNCC(O)COc1cccc2[nH]c3ccccc3c12", "note": "(centres unmarked) [Carvedilol]", "screening hit: restoration of β-trypsin activity": "demonstrate PAI-1 inhibitor activity"}
{"compound": "CC(=O)Oc1cc(-c2coc3cc(OC(C)=O)c(OC(C)=O)c(OC(C)=O)c3c2=O)cc(OC(C)=O)c1OC(C)=O", "note": "[IRIGINOL HEXAACEATATE]", "screening hit: restoration of β-trypsin activity": "demonstrate PAI-1 inhibitor activity"}
{"compound": "Cc1cc(C(C)(C)C)cc(C)c1CC1=NCCN1", "note": "[XYLOMETAZOLINE HYDROCHLORIDE]", "screening hit: restoration of β-trypsin activity": "demonstrate PAI-1 inhibitor activity"}
{"compound": "CC1=NCCc2c1[nH]c1cc(O)ccc21.Cl", "note": "[HARMALOL HYDROCHLORIDE]", "screening hit: restoration of β-trypsin activity": "demonstrate PAI-1 inhibitor activity"}
{"compound": "NC(=O)N1c2ccccc2CC(=O)c2ccccc21", "note": "[OXCARBAZEPINE]", "screening hit: restoration of β-trypsin activity": "demonstrate PAI-1 inhibitor activity"}
{"compound": "O=c1c(O)cccc2cc(O)c(O)c(O)c12", "note": "[PURPUROGALLIN]", "screening hit: restoration of β-trypsin activity": "demonstrate PAI-1 inhibitor activity"}
{"compound": "CC(C)c1ccc2c(c1)c(SC(C)(C)C)c(CC(C)(C)C(=O)O)n2Cc1ccc(Cl)cc1", "note": "[1H-Indole-2-propanoic acid, 1-[(4-chlorophenyl)methyl]-3-[(1,1-dimethylethyl)thio]-Alpha,Alpha-dimethyl-5-(1-methylethyl)-]", "screening hit: restoration of β-trypsin activity": "demonstrate PAI-1 inhibitor activity"}
{"compound": "CCOC(=O)N1CCC(=C2c3ccc(Cl)cc3CCc3cccnc32)CC1", "note": "[LORATADINE]", "screening hit: restoration of β-trypsin activity": "demonstrate PAI-1 inhibitor activity"}
{"compound": "CC12CC3CC(C)(C1)CC(N)(C3)C2", "note": "[MEMANTINE HYDROCHLORIDE]", "screening hit: restoration of β-trypsin activity": "demonstrate PAI-1 inhibitor activity"}
{"compound": "CCOC(=O)c1ccc(OC(=O)CCCCCN=C(N)N)cc1.CS(=O)(=O)O", "note": "[GABEXATE MESYLATE]", "screening hit: restoration of β-trypsin activity": "demonstrate PAI-1 inhibitor activity"}
{"compound": "O=c1cc(-c2cc(O)c(O)c(O)c2)oc2cc(O)cc(O)c12", "note": "[HIERACIN]", "screening hit: restoration of β-trypsin activity": "demonstrate PAI-1 inhibitor activity"}
{"compound": "C=C[C@H]1CN2CC[C@H]1C[C@H]2[C@H](OC(=O)OCC)c1ccnc2ccc(OC)cc12", "note": "[QUININE ETHYL CARBONATE]", "screening hit: restoration of β-trypsin activity": "demonstrate PAI-1 inhibitor activity"}
{"compound": "CN1CCCC(n2nc(Cc3ccc(Cl)cc3)c3ccccc3c2=O)CC1", "note": "(centres unmarked) [AZELASTINE HYDROCHLORIDE]", "screening hit: restoration of β-trypsin activity": "demonstrate PAI-1 inhibitor activity"}
{"compound": "Cl.N[C@H]1C(O)O[C@H](CO)[C@@H](O)[C@@H]1O", "note": "(some centres unmarked) [GLUCOSAMINE HYDROCHLORIDE]", "screening hit: restoration of β-trypsin activity": "demonstrate PAI-1 inhibitor activity"}
{"compound": "O=C1C=C2CC3(O)COc4c(ccc(O)c4O)C3=C2C=C1O", "note": "(centres unmarked) [HEMATEIN]", "screening hit: restoration of β-trypsin activity": "demonstrate PAI-1 inhibitor activity"}
{"compound": "COc1cc(C(=O)NS(=O)(=O)c2ccccc2C)ccc1Cc1cn(C)c2ccc(NC(=O)OC3CCCC3)cc12", "note": "[ZAFIRLUKAST]", "screening hit: restoration of β-trypsin activity": "demonstrate PAI-1 inhibitor activity"}
{"compound": "O=C1[C@H](CC[C@H](O)c2ccc(F)cc2)[C@@H](c2ccc(O)cc2)N1c1ccc(F)cc1", "note": "[EZETIMIBE]", "screening hit: restoration of β-trypsin activity": "demonstrate PAI-1 inhibitor activity"}
{"compound": "O=c1c(O)cccc2c([C@H]3Oc4cc(O)cc(O)c4C[C@H]3O)cc(O)c(O)c12", "note": "[THEAFLAVANIN]", "screening hit: restoration of β-trypsin activity": "demonstrate PAI-1 inhibitor activity"}
{"compound": "CHLORAMPHENICOL HEMISUCCINATE", "screening hit: restoration of β-trypsin activity": "demonstrate PAI-1 inhibitor activity"}
{"compound": "COc1cc(-c2coc3cc(OCc4ccccc4)c(OC)c(O)c3c2=O)cc(OCc2ccccc2)c1OC", "note": "[IRIGENIN, DIBENZYL ETHER]", "screening hit: restoration of β-trypsin activity": "demonstrate PAI-1 inhibitor activity"}
